Measured values as given in US4644055A, “Method for preparing specific inhibitors of virus-specified proteases” (priority 1984, dated 1987).
Read-outs that look alike come from different tables or passages of the source. Starred links: 1 amine or outer side, 2 acyl side, 3 side chain; linkers in the order of their positions; H or OH if unused. *: point of attachment. code Z = not defined here; MeOSuc = COC(=O)CCC(=O)*; CH2 = C([*:1])[*:2]; CH2Cl = ClC*

Assays:
poliovirus = conditions: cited from earlier work
echovirus-12 = conditions: Korant 1972; cited from earlier work
chymotrypsin = chymotrypsin (Bos taurus, UniProt P00766); conditions: inhibitor concentration 600 μg/mL; Ito et al. 1972; cited from earlier work
[1] = system: human poliomyelitisvirus type 2; assay type: cell-based, poliovirus type 2; set-up: key to Comparative Experiments Involving Other Peptide Halomethyl Ketones: Activity: -: no activity; +/-: low activity; +: active at 100 μg/mL; ++: active at 50 μg/mL; +++: active at 10 μg/mL; ++++: active at <5 μg/mL
human rhinovirus type 1A [2] = assay type: cell-based
poliovirus type 2 = assay type: cell-based
human rhinovirus type 1A [3] = assay: Plaque inhibition assay, rhinovirus; assay type: cell-based

Cc1ccc(S(=O)(=O)NC(CCCCN)C(=O)CCl)cc1 (stereo not drawn) [TLCK, tolylsulfonyllysyl chloromethyl ketone]
inhibition of poliovirus protein processing / protease cleavage of poliovirus-specific polypeptides (poliovirus): inhibition
inhibition of echovirus-12 protein processing (echovirus-12): inhibition

Cc1ccc(S(=O)(=O)N[C@@H](Cc2ccccc2)C(=O)CCl)cc1 [TPCK, tolylsulfonylphenylalanyl chloromethyl ketone]
inhibition of poliovirus protein processing / protease cleavage of poliovirus-specific polypeptides (poliovirus): inhibition
inhibition of echovirus-12 protein processing (echovirus-12): inhibition

Ac-Leu-Leu-PheCH3
inhibition of chymotrypsin (chymotrypsin): no inhibition was observed

MeOSuc-Phe-Gly-Leu-LeuCH3 (MeOSuc-FGLL-CH2; SMILES COC(=O)CCC(=O)N[C@@H](Cc1ccccc1)C(=O)NCC(=O)N[C@@H](CC(C)C)C(=O)N[C@@H](CC(C)C)C(C)=O)
activity in the viral cleavage assay ([1]; 50 μg/mL): active

Z-- Phe--Gly--Pro--LeuCH2 Cl ({code Z}-FGPL-CH2Cl; reading uncertain; also: printed as Z-- Phe--Gly--Pro--LeuCH2 Cl)
Protease-Inhibiting Activity of Selected Peptide Halomethyl Ketones: Activity [1]: ++ (key: -: no activity; +/-: low activity; +: active at 100 μg/mL; ++: active at 50 μg/mL; +++: active at 10 μg/mL; ++++: active at <5 μg/mL)

Z--Ala--Gly--Ala--LeuCH2 Cl ({code Z}-AGAL-CH2Cl; reading uncertain; also: printed as Z--Ala--Gly--Ala--LeuCH2 Cl)
Comparative Experiments Involving Other Peptide Halomethyl Ketones: Activity [1]: +/-

Z--Gln--Gly--Ala--LeuCH2 Cl ({code Z}-QGAL-CH2Cl; reading uncertain; also: printed as Z--Gln--Gly--Ala--LeuCH2 Cl)
Comparative Experiments Involving Other Peptide Halomethyl Ketones: Activity [1]: + (key: -: no activity; +/-: low activity; +: active at 100 μg/mL; ++: active at 50 μg/mL; +++: active at 10 μg/mL; ++++: active at <5 μg/mL)

Z--Leu--Gly--Ala--LeuCH2 Cl ({code Z}-LGAL-CH2Cl; reading uncertain; also: printed as Z--Leu--Gly--Ala--LeuCH2 Cl)
Protease-Inhibiting Activity of Selected Peptide Halomethyl Ketones: Activity [1]: +++ (key: -: no activity; +/-: low activity; +: active at 100 μg/mL; ++: active at 50 μg/mL; +++: active at 10 μg/mL; ++++: active at <5 μg/mL)

Z--Phe--Gly--Gly--LeuCH2 Cl ({code Z}-FGGL-CH2Cl; reading uncertain; also: printed as Z--Phe--Gly--Gly--LeuCH2 Cl)
Protease-Inhibiting Activity of Selected Peptide Halomethyl Ketones: Activity [1]: +++ (key: -: no activity; +/-: low activity; +: active at 100 μg/mL; ++: active at 50 μg/mL; +++: active at 10 μg/mL; ++++: active at <5 μg/mL)

Z--Phe--Gly--Lys--LeuCH2 Cl ({code Z}-FGKL-CH2Cl; reading uncertain; also: printed as Z--Phe--Gly--Lys--LeuCH2 Cl)
Comparative Experiments Involving Other Peptide Halomethyl Ketones: Activity [1]: + (key: -: no activity; +/-: low activity; +: active at 100 μg/mL; ++: active at 50 μg/mL; +++: active at 10 μg/mL; ++++: active at <5 μg/mL)

Z--Phe--Gly--Phe--LeuCH2 Cl ({code Z}-FGFL-CH2Cl; reading uncertain; also: printed as Z--Phe--Gly--Phe--LeuCH2 Cl)
Protease-Inhibiting Activity of Selected Peptide Halomethyl Ketones: Activity [1]: ++ (key: -: no activity; +/-: low activity; +: active at 100 μg/mL; ++: active at 50 μg/mL; +++: active at 10 μg/mL; ++++: active at <5 μg/mL)

Z--Phe--Leu--Ala--LeuCH2 Cl ({code Z}-FLAL-CH2Cl; reading uncertain; also: printed as Z--Phe--Leu--Ala--LeuCH2 Cl)
Protease-Inhibiting Activity of Selected Peptide Halomethyl Ketones: Activity [1]: ++ (key: -: no activity; +/-: low activity; +: active at 100 μg/mL; ++: active at 50 μg/mL; +++: active at 10 μg/mL; ++++: active at <5 μg/mL)

Z--Phe--Lys--Ala--LeuCH2 Cl ({code Z}-FKAL-CH2Cl; reading uncertain; also: printed as Z--Phe--Lys--Ala--LeuCH2 Cl)
Comparative Experiments Involving Other Peptide Halomethyl Ketones: Activity [1]: + (key: -: no activity; +/-: low activity; +: active at 100 μg/mL; ++: active at 50 μg/mL; +++: active at 10 μg/mL; ++++: active at <5 μg/mL)

Z--Phe--Phe--Ala--LeuCH2 Cl ({code Z}-FFAL-CH2Cl; reading uncertain; also: printed as Z--Phe--Phe--Ala--LeuCH2 Cl)
Comparative Experiments Involving Other Peptide Halomethyl Ketones: Activity [1]: +/-

Z--Phe--Pro--Ala--LeuCH2 Cl ({code Z}-FPAL-CH2Cl; reading uncertain; also: printed as Z--Phe--Pro--Ala--LeuCH2 Cl)
Comparative Experiments Involving Other Peptide Halomethyl Ketones: Activity [1]: + (key: -: no activity; +/-: low activity; +: active at 100 μg/mL; ++: active at 50 μg/mL; +++: active at 10 μg/mL; ++++: active at <5 μg/mL)

Z-Phe-Gly-Ala-LeuCH2 Br ({code Z}-FGAL-CH2Br; reading uncertain; also: printed as Z-Phe-Gly-Ala-LeuCH2 Br) [Z--Phe--Gly--Ala--LeuCH2 Br]
Protease-Inhibiting Activity of Selected Peptide Halomethyl Ketones: Activity [1]: +++ (key: -: no activity; +/-: low activity; +: active at 100 μg/mL; ++: active at 50 μg/mL; +++: active at 10 μg/mL; ++++: active at <5 μg/mL)

Z-Phe-Gly-Ala-LeuCH2 Cl ({code Z}-FGAL-CH2Cl; reading uncertain; also: printed as Z-Phe-Gly-Ala-LeuCH2 Cl) [Z--Phe--Gly--Ala--LeuCH2 Cl]
Protease-Inhibiting Activity of Selected Peptide Halomethyl Ketones: Activity [1]: +++ (key: -: no activity; +/-: low activity; +: active at 100 μg/mL; ++: active at 50 μg/mL; +++: active at 10 μg/mL; ++++: active at <5 μg/mL)

Z-Phe-Gly-Ala-LeuCH3 ({code Z}-FGAL-CH2; reading uncertain; also: printed as Z-Phe-Gly-Ala-LeuCH3)
activity in the viral cleavage assay (human rhinovirus type 1A [2]; test concentration 100 μg/mL): demonstrated activity
activity in the viral cleavage assay ([1]; 50 μg/mL): active
activity in the viral cleavage assay ([1]; test concentration 100 μg/mL): demonstrated activity
plaque reduction (poliovirus type 2): > 90%
plaque reduction (human rhinovirus type 1A [3]; 50 μg/mL in agar overlay, compared to control plates): > 90%

Z-Phe-Gly-Ala-TyrCH2 Cl ({code Z}-FGAY-CH2Cl; reading uncertain; also: printed as Z-Phe-Gly-Ala-TyrCH2 Cl) [Z--Phe--Gly--Ala--TyrCH2 Cl]
Protease-Inhibiting Activity of Selected Peptide Halomethyl Ketones: Activity [1]: ++ (key: -: no activity; +/-: low activity; +: active at 100 μg/mL; ++: active at 50 μg/mL; +++: active at 10 μg/mL; ++++: active at <5 μg/mL)

Z-Phe-Gly-Ala-ValCH2 Cl ({code Z}-FGAV-CH2Cl; reading uncertain; also: printed as Z-Phe-Gly-Ala-ValCH2 Cl) [Z--Phe--Gly--Ala--ValCH2 Cl]
Protease-Inhibiting Activity of Selected Peptide Halomethyl Ketones: Activity [1]: ++ (key: -: no activity; +/-: low activity; +: active at 100 μg/mL; ++: active at 50 μg/mL; +++: active at 10 μg/mL; ++++: active at <5 μg/mL)

Z-Phe-Gly-Leu-LeuCH2 Cl ({code Z}-FGLL-CH2Cl; reading uncertain; also: printed as Z-Phe-Gly-Leu-LeuCH2 Cl) [Z--Phe--Gly--Leu--LeuCH2 Cl]
concentration at which cytotoxicity was first detected (human HeLa-O cells): about 15 μg/mL
Protease-Inhibiting Activity of Selected Peptide Halomethyl Ketones: Activity [1]: ++++ (key: -: no activity; +/-: low activity; +: active at 100 μg/mL; ++: active at 50 μg/mL; +++: active at 10 μg/mL; ++++: active at <5 μg/mL)
Antiviral activity, as scored by 90% plaque reduction, noted at concentration (human rhinovirus type 1A [3]; HeLa cells, agar overlay): 1 µg/mL

Z-Phe-Gly-Leu-LeuCH3 [Z--Phe--Gly--Leu--LeuCH3]
activity in the viral cleavage assay (human rhinovirus type 1A [2]): demonstrated activity
activity in the viral cleavage assay [1]: demonstrated activity

Z-Phe-Gly-Ser-LeuCH2 Cl ({code Z}-FGSL-CH2Cl; reading uncertain; also: printed as Z-Phe-Gly-Ser-LeuCH2 Cl) [Z--Phe--Gly--Ser--LeuCH2 Cl]
Protease-Inhibiting Activity of Selected Peptide Halomethyl Ketones: Activity [1]: ++ (key: -: no activity; +/-: low activity; +: active at 100 μg/mL; ++: active at 50 μg/mL; +++: active at 10 μg/mL; ++++: active at <5 μg/mL)

Z-Phe-Ser-Ala-LeuCH2 Cl ({code Z}-FSAL-CH2Cl; reading uncertain; also: printed as Z-Phe-Ser-Ala-LeuCH2 Cl) [Z--Phe--Ser--Ala--LeuCH2 Cl]
Comparative Experiments Involving Other Peptide Halomethyl Ketones: Activity [1]: + (key: -: no activity; +/-: low activity; +: active at 100 μg/mL; ++: active at 50 μg/mL; +++: active at 10 μg/mL; ++++: active at <5 μg/mL)
